Laboratory results published in US20260158056A1, “USE OF LOW MOLECULAR WEIGHT HYALURONIC ACID FOR THE TREATMENT OF LUNG MUCOSAL INFLAMMATION” (INSTITUT NATIONAL DE LA SANTÉ ET DE LA RECHERCHE MÉDICALE, priority 2021, published 2026).

How the values were obtained:
Format in all cases: cell-based
[1] = test system: IL-8 secreted by F508del/F508del CF human airway epithelial cells; experiment: IL-8 ELISA, CF airway epithelial cell monolayers, Cytomix 24 h then Cytomix + treatment 24 h (curative); settings: FIG. 2, 5; curative: Cytomix 24 h, then Cytomix + HA 1 mg/mL or Dexa 10^-6M 24 h; n=7 CF patients
Experimental: FIG. 2: Measurement by ELISA assay of the pro-inflammatory chemokine IL-8 secreted by F508del/F508del CF human airway epithelial cells cultured as monolayers. Airway epithelial cells were seeded in 48-wells plates and cultured until confluence was reached. Cells were then treated for 24 h with a pro-inflammatory chemokine cocktail (TNFα, IL1β and IFNγ; 10 ng/mL each) called Cytomix (Cy). Cells were thereafter treated with a combo containing Cytomix and the anti-inflammatory dexamethasone (Dexa; 10^-6M), or 15-45 kDa sodium-hyaluronic acid (HA-Na 15-45 kDa) (ARD—Pomacle—France—as prepared according to WO2004050187), 15-30 kDa sodium-hyaluronic acid (HA-Na 15-30 kDa) (Sigma Aldrich), or 30-50 kDa sodium-hyaluronic acid (HA-Na 30-50 kDa) (Sigma Aldrich) at 1 mg/mL during the following 24 h. The culture medium was finally collected and the IL-8 content was determined by ELISA assay. n=7 different F508del/F508del CF patients. p<0.001 (***); p<0.01 (**); p<0.05 (*).ns: non-significant.
FIG. 5: Measurement by ELISA assay of the pro-inflammatory chemokine IL-8 secreted by F508del/F508del CF human airway epithelial cells cultured as monolayers. Airway epithelial cells were seeded in 48-wells plates and cultured until confluence was reached. Cells were then treated for 24 h with a pro-inflammatory chemokine cocktail (TNFα, IL1β and IFNγ; 10 ng/ml each) called Cytomix (Cy). Cells were thereafter treated with a combo containing Cytomix and the anti-inflammatory dexamethasone (Dexa; 10^-6M), or 15-45 kDa sodium-hyaluronic acid (HA-Na 15-45 kDa) (ARD—Pomacle—France—as prepared according to WO2004050187), 15-45 kDa calcium-hyaluronic acid (HA-Ca 15-45 kDa; ARD), or 15-45 kDa potassium-hyaluronic acid (HA-K 15-45 kDa; ARD) at 1 mg/mL during the following 24 h. The culture medium was finally collected and the IL-8 content was determined. n=7 different F508del/F508del CF patients. p<0.001 (***); p<0.01 (**); p<0.05 (*). ns: non-significant.

[2] = test system: IL-8 secreted by human COPD airway epithelial cells; experiment: IL-8 ELISA, COPD airway epithelial cell monolayers, Cytomix 24 h then Cytomix + treatment 24 h (curative); settings: FIG. 17, 19; curative: Cytomix 24 h, then Cytomix + HA 1 mg/mL or Dexa 10^-6M 24 h; n=5 COPD patients
Experimental: FIG. 17: Measurement by ELISA assay of the pro-inflammatory chemokine IL-8 secreted human COPD airway epithelial cells cultured as monolayers. Airway epithelial cells were seeded in 48-wells plates and cultured until confluence was reached. Cells were then treated for 24 h with a pro-inflammatory chemokine cocktail (TNFα, IL1β and IFNγ 10 ng/ml each) called Cytomix (Cy). Cells were thereafter treated with a combo containing Cytomix and the anti-inflammatory dexamethasone (Dexa; 10^-6M), 15-45 kDa sodium-hyaluronic acid (HA-Na 15-45 kDa) (ARD—Pomacle—France—as prepared according to WO2004050187), 15-30 kDa sodium-hyaluronic acid (HA-Na 15-30 kDa) (Sigma Aldrich), or 30-50 kDa sodium-hyaluronic acid (HA-Na 30-50 kDa) (Sigma Aldrich) at 1 mg/mL during the following 24 h. The culture medium was finally collected and the IL-8 content was determined by ELISA assay. n=5 different COPD patients. p<0.001 (***); p<0.01 (**); p<0.05 (*). ns: non-significant.
FIG. 19: Measurement by ELISA assay of the pro-inflammatory chemokine IL-8 secreted by human COPD airway epithelial cells cultured as monolayers. Airway epithelial cells were seeded in 48-wells plates and cultured until confluence was reached. Cells were then treated for 24 h with a pro-inflammatory chemokine cocktail (TNFα, IL1β and IFNγ 10 ng/ml each) called Cytomix (Cy). Cells were thereafter treated with a combo containing Cytomix and the anti-inflammatory dexamethasone (Dexa; 10^-6M), or 15-45 kDa sodium-hyaluronic acid (HA-Na 15-45 kDa) (ARD—Pomacle—France—as prepared according to WO2004050187), 15-45 kDa calcium-hyaluronic acid (HA-Ca 15-45 kDa; ARD), or 15-45 kDa potassium hyaluronic acid (HA-K 15-45 kDa; ARD) at 1 mg/mL during the following 24 h. The culture medium was finally collected and the IL-8 content was determined. n=5 different COPD patients. p<0.001 (***); p<0.01 (**); p<0.05 (*). ns: non-significant.

[3] = test system: IL-8 secreted by human COPD airway epithelial cells; experiment: IL-8 ELISA, COPD airway epithelial cell monolayers, Cytomix + treatment 24 h (co-treatment); settings: FIG. 18, 20; co-treatment: Cytomix + HA 1 mg/mL or Dexa 10^-6M 24 h; n=5 COPD patients
Experimental: FIG. 18: Measurement by ELISA assay of the pro-inflammatory chemokine IL-8 secreted by human COPD airway epithelial cells cultured as monolayers. Airway epithelial cells were seeded in 48-wells plates and cultured until confluence was reached. Cells were then treated for 24 h with a combo containing a pro-inflammatory chemokine cocktail (TNFα, IL1β and IFNγ 10 ng/mL each) called Cytomix (Cy) and the anti-inflammatory dexamethasone (Dexa; 10^-6M), 15-45 kDa sodium-hyaluronic acid (HA-Na 15-45 kDa) (ARD—Pomacle—France—as prepared according to WO2004050187), 15-30 kDa sodium-hyaluronic acid (HA-Na 15-30 kDa) (Sigma Aldrich), or 30-50 kDa sodium-hyaluronic acid (HA-Na 30-50 kDa) (Sigma Aldrich) at 1 mg/mL. The culture medium was then collected and the IL-8 content was determined. n=5 COPD patient. p<0.001 (***); p<0.01 (**); p<0.05 (*). ns: non-significant.
FIG. 20: Measurement by ELISA assay of the pro-inflammatory chemokine IL-8 secreted by human COPD airway epithelial cells cultured as monolayers. Airway epithelial cells were seeded in 48-wells plates and cultured until confluence was reached. Cells were then treated for 24 h with a combo containing a pro-inflammatory chemokine cocktail (TNFα, IL1β and IFNγ 10 ng/ml each) called Cytomix (Cy) and the anti-inflammatory dexamethasone (Dexa; 10^-6M), 15-45 kDa sodium-hyaluronic acid (HA-Na 15-45 kDa) (ARD—Pomacle—France—as prepared according to WO2004050187), 15-45 kDa calcium-hyaluronic acid (HA-Ca 15-45 kDa; ARD), or 15-45 kDa potassium hyaluronic acid (HA-K 15-45 kDa; ARD) at 1 mg/mL. The culture medium was then collected and the IL-8 content was determined. n=5 different COPD patients. p<0.001 (***); p<0.01 (**); p<0.05 (*). ns: non-significant.

Compound | decrease in IL-8 secretion [1] | decrease in IL-8 secretion [2] | decrease in IL-8 secretion [3]
15-30 kDa sodium-hyaluronic acid [HA-Na 15-30 kDa] | 44.2% | 65% | 43.1%
15-45 kDa calcium-hyaluronic acid [HA-Ca 15-45 kDa] | 33.6% | 61.5% | 12.9%
15-45 kDa potassium-hyaluronic acid [HA-K 15-45 kDa] | 47.5% | 61.1% | 27.5%
15-45 kDa sodium-hyaluronic acid [HA-Na 15-45 kDa] | 32.1% | 60.2% | 33.4%
30-50 kDa sodium-hyaluronic acid [HA-Na 30-50 kDa] | 42.2% | 69.5% | 30.8%
C[C@@H]1C[C@H]2[C@@H]3CCC4=CC(=O)C=C[C@]4(C)[C@@]3(F)[C@@H](O)C[C@]2(C)[C@@]1(O)C(=O)CO [Dexamethasone, dexamethasone, reference compound] | 30.9% | 68.8% | 32.1%
